Results: patent US10364245B2 (CHIESI FARMACEUTICI S.p.A., priority 2017, dated 2019)

Experiments:
p38 alpha = target: T1, p38 alpha (Homo sapiens, UniProt Q16539); assay: P38 alpha enzyme inhibition assay (Alphascreen kinase activity assay); type: biochemical; conditions: 100 pM p38 alpha, 2 hours preincubation at 25° C., 250 μM ATP, ATF-2 fusion protein; read-out: p38α inhibition
T1 construct: purchased Invitrogen PV3304
Method in brief: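 100 pM p38 alpha preincubated 2 h at 25 °C with compound and 0.3 μg/ml ATF-2 fusion substrate (HEPES pH 7.5, MgCl2, 1% DMSO). Reaction started with 250 μM ATP, run 1 h at 25 °C, stopped with EDTA; phospho-ATF2 detected by AlphaScreen luminescence. IC50 from concentration-response curves.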

[1] = system: Peripheral Blood Mononuclear Cells (PBMCs), TNFα release; assay: LPS-stimulated PBMC TNFα release assay; type: cell-based; conditions: human PBMC, LPS (10 ng/ml), 18 h, compound 1 h before LPS; read-out: LPS-stimulated PBMC TNFα release inhibition
Method in brief: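 Human PBMCs from healthy donors, serum-starved 3 h, then pre-incubated 1 h at 37 °C with compound in 1% FBS medium before LPS (10 ng/ml) for 18 h. Supernatant TNFα measured by MSD; IC50 from dose-response as % inhibition of control, at least three experiments.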

T1 sequence (Q16539 whole entry, the tested form may be a part): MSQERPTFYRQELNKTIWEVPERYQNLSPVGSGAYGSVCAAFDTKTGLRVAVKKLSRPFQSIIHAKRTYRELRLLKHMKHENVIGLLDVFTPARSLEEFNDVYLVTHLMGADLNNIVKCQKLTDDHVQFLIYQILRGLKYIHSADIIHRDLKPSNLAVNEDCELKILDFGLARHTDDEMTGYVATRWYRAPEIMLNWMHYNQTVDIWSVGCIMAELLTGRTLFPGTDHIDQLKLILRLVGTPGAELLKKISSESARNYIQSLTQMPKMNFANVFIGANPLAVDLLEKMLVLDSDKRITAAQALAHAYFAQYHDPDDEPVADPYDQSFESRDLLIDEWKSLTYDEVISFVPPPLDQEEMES

SMILES | IC50 (p38 alpha) [nM] | IC50 [1] [nM]
CN1CCC[C@@]1(C)c1nnc2ccc(O[C@@H]3CC[C@H](NC(=O)Nc4cc(C(C)(C)C)nc(CO)n4)c4ccccc43)cn12 [Example 27, 1-(6-(tert-Butyl)-2-(hydroxymethyl)pyrimidin-4-yl)-3-((1S,4R)-4-((3-((S)-1,2-dimethylpyrrolidin-2-yl)-[1,2,4]triazolo[4,3-a]pyridin-6-yl)oxy)-1,2,3,4-tetrahydronaphthalen-1-yl)urea] | < 1 | < 1
CO[C@@H](C)c1nnc2ccc(O[C@@H]3CC[C@H](NC(=O)Nc4cc(C(C)(C)C)nc(C(=O)NCCN(C)C)n4)c4ccccc43)cn12 [Example 56, 4-(tert-Butyl)-N-(2-(dimethylamino)ethyl)-6-(3-((1S,4R)-4-((3-((S)-1-methoxyethyl)-[1,2,4]triazolo[4,3-a]pyridin-6-yl)oxy)-1,2,3,4-tetrahydronaphthalene-1-yl)ureido)pyrimidin-2-carboxamide] | 1 to 10 | > 5
CN(C)CCNC(=O)c1nc(NC(=O)N[C@H]2CC[C@@H](Oc3ccc4nnc(C5CCCC5)n4c3)c3ccccc32)cc(C(C)(C)C)n1 [Example 74, 4-(tert-butyl)-6-(3-((1S,4R)-4-((3-cyclopentyl-[1,2,4]triazolo[4,3-a]pyridin-6-yl)oxy)-1,2,3,4-tetrahydronaphthalen-1-yl)ureido)-N-(2-(dimethylamino)ethyl)-pyrimidine-2-carboxamide] | 1 to 10 | > 5
CC(C)(C)c1cc(NC(=O)N[C@H]2CC[C@@H](Oc3ccc4nnc(C(C)(C)C)n4c3)c3ccccc32)cc(C(=O)NCCCN2CCOCC2)n1 [Example 187, 6-(tert-butyl)-4-(3-((1S,4R)-4-((3-(tert-butyl)-[1,2,4]triazolo[4,3-a]pyridin-6-yl)oxy)-1,2,3,4-tetrahydronaphthalen-1-yl)ureido)-N-(3-morpholinopropyl)-picolinamide] | 1 to 10 | 1 to 5
CN1CCC[C@@]1(C)c1nnc2ccc(O[C@@H]3CC[C@H](NC(=O)Nc4cc(C(=O)NCCO)nc(C(C)(C)C)c4)c4ccccc43)cn12 [Example 61, 6-(tert-Butyl)-4-(3-((1S,4R)-4-((3-((S)-1,2-dimethylpyrrolidin-2-yl)-[1,2,4]triazolo[4,3-a]pyridin-6-yl)oxy)-1,2,3,4-tetrahydronaphthalen-1-yl)ureido)-N-(2-hydroxyethyl)picolinamide] | 1 to 10 | 1 to 5
COCCN(C)C(C)(C)CNC(=O)c1nc(NC(=O)N[C@H]2CC[C@@H](Oc3ccc4nnc(C(C)(C)COC)n4c3)c3ccccc32)cc(C(C)(C)C)n1 [Example 178, 4-(tert-butyl)-6-(3-((1S,4R)-4-((3-(1-methoxy-2-methylpropan-2-yl)-[1,2,4]triazolo[4,3-a]pyridin-6-yl)oxy)-1,2,3,4-tetrahydronaphthalen-1-yl)ureido)-N-(2-((2-methoxyethyl)(methyl)-amino)-2-methylpropyl)pyrimidine-2-carboxamide] | 1 to 10 | 1 to 5
CCS(=O)(=O)Nc1cc(NC(=O)N[C@H]2CC[C@@H](Oc3ccc4nnc([C@]5(C)CCCN5C)n4c3)c3ccccc32)cc(C(C)(C)C)n1 [Example 213, N-(6-(tert-Butyl)-4-(3-((1S,4R)-4-((3-((S)-1,2-dimethylpyrrolidin-2-yl)-[1,2,4]triazolo[4,3-a]pyridin-6-yl)oxy)-1,2,3,4-tetrahydronaphthalen-1-yl)ureido)pyridin-2-yl)ethanesulfonamide] | < 1 | 1 to 5
COC1CN(CCNC(=O)c2cc(NC(=O)N[C@H]3CC[C@@H](Oc4ccc5nnc(C(C)(C)C)n5c4)c4ccccc43)cc(C(C)(C)C)n2)C1 [Example 193, 6-(tert-butyl)-4-(3-((1S,4R)-4-((3-(tert-butyl)-[1,2,4]triazolo[4,3-a]pyridin-6-yl)oxy)-1,2,3,4-tetrahydronaphthalen-1-yl)ureido)-N-(2-(3-methoxyazetidin-1-yl)ethyl)picolinainide] | 1 to 10 | 1 to 5
CCC(CC)c1nnc2ccc(O[C@@H]3CC[C@H](NC(=O)Nc4cc(C(C)(C)C)nc(C(=O)NC5CN(C)C5)n4)c4ccccc43)cn12 [Example 84, 4-(tert-butyl)-N-(1-methylazetidin-3-yl)-6-(3-((1S,4R)-4-((3-(pentan-3-yl)-[1,2,4]triazolo[4,3-a]pyridin-6-yl)oxy)-1,2,3,4-tetrahydronaphthalen-1-yl)ureido)pyrimidine-2-carboxamide] | < 1 | > 5
CN1CCC[C@@]1(C)c1nnc2ccc(O[C@@H]3CC[C@H](NC(=O)Nc4cc(C(C)(C)C)nc(NS(C)(=O)=O)n4)c4ccccc43)cn12 [Example 30, N-(4-(tert-Butyl)-6-(3-((1S,4R)-4-((3-((S)-1,2-dimethylpyrrolidin-2-yl)-[1,2,4]triazolo[4,3-a]pyridin-6-yl)oxy)-1,2,3,4-tetrahydronaphthalen-1-yl)ureido)pyrimidin-2-yl)methanesulfonamide] | 1 to 10 | 1 to 5
CN(CCNC(=O)c1nc(NC(=O)N[C@H]2CC[C@@H](Oc3ccc4nnc(C(C)(C)C)n4c3)c3ccccc32)cc(C(C)(C)C)n1)C1COC1 [Example 107, 4-(tert-butyl)-6-(3-((1S,4R)-4-((3-(tert-butyl)-[1,2,4]triazolo[4,3-a]pyridin-6-yl)oxy)-1,2,3,4-tetrahydronaphthalen-1-yl)ureido)-N-(2-(methyl(oxetan-3-yl)amino)ethyl)-pyrimidine-2-carboxamide] | < 1 | > 5
C[C@H]1CCCCN1c1nnc2ccc(O[C@@H]3CC[C@H](NC(=O)Nc4cc(C(C)(C)C)nc(C(=O)NCCN(C)C)n4)c4ccccc43)cn12 [Example 37, 4-(tert-Butyl)-N-(2-(dimethylamino)ethyl)-6-(3-((1S,4R)-4-((3-((S)-2-methylpiperidin-1-yl)-[1,2,4]triazolo[4,3-a]pyridin-6-yl)oxy)-1,2,3,4-tetrahydronaphthalen-1-yl)ureido)pyrimidine-2-carboxamide] | < 1 | > 5
CN(CCO)CCNC(=O)c1nc(NC(=O)N[C@H]2CC[C@@H](Oc3ccc4nnc(C(C)(C)C)n4c3)c3ccccc32)cc(C(C)(C)C)n1 [Example 77, 4-(tert-butyl)-6-(3-((1S,4R)-4-((3-(tert-butyl)-[1,2,4]triazolo[4,3-a]pyridin-6-yl)oxy)-1,2,3,4-tetrahydronaphthalen-1-yl)ureido)-N-(2-((2-hydroxyethyl)(methyl)-amino)ethyl)pyrimidine-2-carboxamide] | < 1 | 1 to 5
CC(C)(C)c1cc(NC(=O)N[C@H]2CC[C@@H](Oc3ccc4nnc(C5(C)CCC5)n4c3)c3ccccc32)nc(C(=O)NCCN2CCOCC2)n1 [Example 109, 4-(tert-butyl)-6-(3-((1S,4R)-4-((3-(1-methylcyclobutyl)-[1,2,4]triazolo[4,3-a]pyridin-6-yl)oxy)-1,2,3,4-tetrahydronaphthalen-1-yl)ureido)-N-(2-morpholinoethyl)-pyrimidine-2-carboxamide] | < 1 | > 5
CNC(=O)c1cc(NC(=O)N[C@H]2CC[C@@H](Oc3ccc4nnc([C@]5(C)CCCN5C)n4c3)c3ccccc32)cc(C(C)(C)C)n1 [Example 53, 6-(tert-Butyl)-4-(3-((1S,4R)-4-((3-((S)-1,2-dimethylpyrrolidin-2-yl)-[1,2,4]triazolo[4,3-a]pyridin-6-yl)oxy)-1,2,3,4-tetrahydronaphthalen-1-yl)ureido)-N-methylpicolinamide] | 1 to 10 | 1 to 5
